{
  "source": "patent US20150231080A1",
  "about": "“PHARMACEUTICAL COMPOSITION COMPRISING AN ATYPICAL ANTIPSYCHOTIC AGENT AND METHOD FOR THE PREPARATION THEREOF” (PHARMATHEN S.A., priority 2012, published 2015)",
  "key": {"[1]": {"details": "blends, accelerated storage conditions"}, "[2]": {"details": "fumarate salt, crystalline powder; cited from earlier work"}},
  "data": [
    {"smiles": "OCCOCCN1CCN(C2=Nc3ccccc3Sc3ccccc32)CC1", "note": "[Quetiapine, 11-[4-[2-(2-hydroxyethoxy)ethyl]-1-piperazinyl]dibenzo[b,f][1,4]thiazepine]", "values": [
      {"measurement": "compatibility with tartaric acid", "setting": "[1]", "value": "significant compatibility problems"},
      {"measurement": "solubility in water", "setting": "[2]", "value": "moderately soluble in water"}
    ]}
  ]
}
